Where two headings read alike, the source gives them in different places.
Columns and labels:
[1] = molecular target: human recombinant FGFR1 catalytic structural domain protein (Homo sapiens (Human), UniProt P11362); assay: FGFR1 activity inhibition test (HTRF kinase assay); format: biochemical; conditions: 40 μM ATP
Protocol: FGFR1 Activity Inhibition Test
The influence of the compound according to the present invention on the activity of fibroblast growth factor receptor 1 (FGFR1) was evaluated by an in vitro kinase assay experiment.
(§1) The experimental method is summarized as follows:
The in vitro activity of FGFR1 was determined by assaying the phosphorylation level of the substrate in the kinase reaction, by means of an HTRF kinase assay kit.
(§2) If the IC50 value of the compound was very low, the initial concentration of the compound could be reduced.
(§3) After 60 min, the enzyme reaction was terminated by EDTA in the assay solution, and the phosphorylated products were identified by both the Eu^3+ labeled cage-shaped antibody (donor) and the streptavidin labeled XL665 antibody (receptor) at the same time. […] The inhibition percentage of the compound against FGFR1 activity could be calculated with the following formula: Inhibition percentage=100−100*(signalcompound−signalnegative control)/(signalpositive control−signalnegative control)
The IC50 value of the compound was calculated by the following formula, from 10 concentration points, with XLfit (ID Business Solutions Ltd., UK): Y=Bottom+(Top−Bottom)/(1+10^((Log IC50−X)*slope factor))
(§4) Where, Y is the inhibition percentage, Bottom is the bottom plateau of the curve (the bottom plateau of the S-type curve), Top is the top plateau of the curve (the top plateau of the S-type curve), and X is the log value of the compound concentration to be measured.

[2] = molecular target: human recombinant FGFR4 catalytic structural domain protein (Homo sapiens (Human), UniProt P22455); assay: FGFR4 activity inhibition test (HTRF kinase assay); format: biochemical; conditions: 90 μM ATP
human recombinant FGFR4 catalytic structural domain protein, sequence (P22455 460-802): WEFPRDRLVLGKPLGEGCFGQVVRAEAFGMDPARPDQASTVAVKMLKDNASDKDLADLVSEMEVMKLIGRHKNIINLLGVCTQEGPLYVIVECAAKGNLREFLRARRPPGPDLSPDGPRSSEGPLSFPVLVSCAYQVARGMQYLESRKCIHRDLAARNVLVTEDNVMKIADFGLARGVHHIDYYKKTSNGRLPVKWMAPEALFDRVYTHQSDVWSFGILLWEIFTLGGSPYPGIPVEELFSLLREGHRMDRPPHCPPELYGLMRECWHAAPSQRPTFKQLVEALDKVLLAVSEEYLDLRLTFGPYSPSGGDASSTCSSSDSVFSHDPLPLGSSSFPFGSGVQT
Protocol: FGFR4 Activity Inhibition Test
The influence of the compound according to the present invention on the activity of fibroblast growth factor receptor 4 (FGFR4) was evaluated by an in vitro kinase assay experiment.
as §1
The in vitro activity of FGFR4 was determined by assaying the phosphorylation level of the substrate in the kinase reaction, by means of an HTRF kinase assay kit.
as §2
as §3, with “FGFR4” for “FGFR1”
The IC50 value of the compound was calculated by the following formula, from 10 concentration points, with XLfit (ID Business Solutions Ltd., UK): Y=Bottom+(Top−Bottom)/(1+10^((Log IC50−X)*slope factor)) Where, Y is the inhibition percentage, Bottom is the bottom plateau of the curve (the bottom plateau of the S-type curve), Top is the top plateau of the curve (the top plateau of the S-type curve), and X is the log value of the compound concentration to be measured.

Hep3B cells = assay: Hep3B cell proliferation inhibition test (CellTiter-Glo); format: cell-based; conditions: Homo sapiens, 72 h, CTG
Protocol: Hep3B Cell Proliferation Inhibition Test
The influence of the compound according to the present invention on Hep3B cell proliferation was evaluated by a luminescence cell viability test.
as §1
A CellTilter-Glo (CTG) assay kit was used to detect an indicator ATP of active cellular metabolism by means of a unique stable luciferase, and the luminous signal produced in the test was in direct proportion to the count of active cells in the medium, thereby to detect the cell proliferation of Hep3B.
A CellTilter-Glo agent (Promega, G7572) was comprised of a CellTilter-Glo lyophilized powder and a CellTilter-Glo buffer, and the lyophilized powder was dissolved into the buffer in use.
Hep3B cells (ATCC, HB-8064) (cell source: Shanghai Academy of Life Sciences, Chinese Academy of Sciences) were cultured in a DMEM complete medium (Thermofisher, 11995073) containing a 10% FBS (GBICO, 10099-141) and 100 units/ml mycillin mixed solution (Thermofisher, 15140122). When the cells coverage reached 80-90% in the culture vessel, after the cells were digested and blown about with 0.25% pancreatin (containing EDTA) (Thermofisher, 25200056), they were planted in a white 384 well plate (Thermofisher, 164610), with 1000 cells in each well (27 μl of a DMEM complete medium), and then the 384 well plate was placed into an incubator at 37° C. and 5% CO2 and cultured overnight (18-20 h). The compound was dissolved and diluted in 100% DMSO to 100 μM, then 4-fold-series diluted with DMSO to a minimum concentration of 0.0061 μM, and each concentration point was 50-fold diluted with the FBS-free DMEM medium. If the IC50 value of the compound was very low, the initial concentration of the compound could be reduced. […] This 384 well plate was placed into an incubator at 37° C. and 5% CO2 for further culture, taken out after 72 h, and stood at room temperature for 30 min. The CTG agent was also taken out and balanced to room temperature. 15 μl of the CTG agent was added into each well, and placed onto a shaker to be gently shaken for 3 min to ensure sufficient cell lysis. After 10 min of standing to allow the luminescence signal to be stable, the luminescence signal was read with EnVision (Perkin Elmer).
The inhibition percentage of the compound against Hep3B cell proliferation could be calculated with the following formula: Inhibition percentage=100−100*(signalcompound−signalnegative control)/(signalpositive control−signalnegative control)
The IC50 value of the compound was calculated by the following formula, from 8 concentration points, with XLfit (ID Business Solutions Ltd., UK): Y=Bottom+(Top−Bottom)/(1+10^((Log IC50−X)*slope factor))
as §4

[3] = test system: FGF19/FGFR4-overexpressed Hep3B hepatocellular carcinoma (HCC) xenograft tumors; format: in vivo; conditions: for TGI value / mean tumor size: day 18
Protocol: Data points represent group mean, error bars represent standard error of the mean (SEM). *P<0.05, **P<0.01, ***P<0.001, ****P<0.0001, NS P>0.05 vs vehicle group.
The relative change of body weights (% RCBW) was calculated based on the following formula: RCBW (%)=(BWi−BW0)/BW0×100%, BWi was the bodyweight on the day of dosing and BW0 was the bodyweight on the first day of administration. Data points represent percent group mean change in BW. Error bars represent standard error of the mean (SEM).
Dosing was initiated on day 0 and effects on tumor growth were evaluated by measuring percent tumor growth inhibition (TGI) at the end of the study. Tolerability was assessed by body weight loss, lethality, and clinical signs of adverse treatment-related side effects. Tumor volumes and body weights were measured twice per week in the administration period. The percentage of TGI was determined on day 18 of the study. The difference between the mean values of tumor volume in treatment and vehicle groups was analyzed for significance using one-way ANOVA (followed by Dennett's test) at each time point and a P<0.05 was considered to be statistically significant.

[4] = 100 mg/kg BID for 18 days, oral

human recombinant FGFR1 catalytic structural domain protein, sequence (P11362 other isoform, or with tags, fused parts or gaps): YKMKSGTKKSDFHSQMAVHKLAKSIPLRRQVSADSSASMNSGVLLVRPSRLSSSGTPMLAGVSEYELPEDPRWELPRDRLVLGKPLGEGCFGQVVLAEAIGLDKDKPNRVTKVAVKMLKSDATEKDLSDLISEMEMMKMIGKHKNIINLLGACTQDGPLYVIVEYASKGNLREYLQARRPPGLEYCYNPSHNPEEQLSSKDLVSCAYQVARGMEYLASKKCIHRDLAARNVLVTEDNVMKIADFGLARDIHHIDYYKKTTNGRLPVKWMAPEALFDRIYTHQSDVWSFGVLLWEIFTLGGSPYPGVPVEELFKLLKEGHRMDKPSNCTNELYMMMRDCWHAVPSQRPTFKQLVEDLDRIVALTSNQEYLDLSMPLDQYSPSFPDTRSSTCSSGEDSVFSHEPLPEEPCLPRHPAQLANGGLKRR

SMILES	IC50 [1] [nM]	IC50 [2] [nM]	IC50 (Hep3B cells) [nM]	further results
CN(C(=O)Nc1cc(Cl)ncn1)c1cccc(C=O)n1 [Compound 2, 3-(6-chloropyrimidin-4-yl)-1-(6-formylpyrid-2-yl)-1-methylurea]	> 1000	100 to 1000		
COCCNc1cc(NC(=O)N(C)c2ccc(CN3CCOCC3=O)c(C=O)n2)ncc1C#N [Compound 9, 3-(5-cyano-4-((2-methoxyethyl)amino)pyrid-2-yl)-1-(6-formyl-5-((3-carbonylmorpholino)methyl)pyrid-2-yl)-1-methylurea]			< 50	
CC(C)Oc1cc(NC(=O)N(C)c2ccc(CN3CCN(C)CC3=O)c(C=O)n2)ncc1C#N [Compound 19, 3-(5-cyano-4-isopropoxypyrid-2-yl)-1-(6-formyl-5-((4-methyl-2-carbonylpiperazin-1-yl)methyl)pyrid-2-yl)-1-methylurea]			50 to 100	
CN(C(=O)Nc1ccc(C#N)cn1)c1cccc(C=O)n1 [Compound 3, 3-(5-cyanopyrid-2-yl)-1-(6-formylpyrid-2-yl)-1-methylurea]	> 1000	10 to 100		
CC(C)Oc1cc(NC(=O)N(C)c2cccc(C=O)n2)ncc1C#N [Compound 6, 3-(5-cyano-4-isopropoxypyrid-2-yl)-1-(6-formylpyrid-2-yl)-1-methylurea]	> 1000	< 10		
COCCNc1cc(NC(=O)N(C)c2cccc(C=O)n2)ncc1C#N [Compound 1, 3-(5-cyano-4-((2-methoxyethyl)amino)pyrid-2-yl)-1-(6-formylpyrid-2-yl)-1-methyl urea]	> 1000			
CC(C)Nc1cc(NC(=O)N(C)c2ccc(CN3CCN(C)CC3=O)c(C=O)n2)ncc1C#N [Compound 16, 3-(5-cyano-4-(isopropylamino)pyrid-2-yl)-1-(6-formyl-5-((4-methyl-2-carbonylpiperazin-1-yl)methyl)pyrid-2-yl)-1-methylurea]			< 50	
COCCOc1cc(NC(=O)N(C)c2cccc(C=O)n2)ncc1C#N [Compound 7, 3-(5-cyano-4-(2-methoxyethoxy)pyrid-2-yl)-1-(6-formylpyrid-2-yl)-1-methylurea]	> 1000	< 10		
CN1CCN(Cc2ccc(N(C)C(=O)Nc3cc(Cl)c(C#N)cn3)nc2C=O)C(=O)C1 [Compound 17, 3-(4-chloro-5-cyanopyrid-2-yl)-1-(6-formyl-5-((4-methyl-2-carbonylpiperazin-1-yl)methyl)pyrid-2-yl)-1-methyl urea]		100 to 1000		
COCCNc1cc(NC(=O)N(C)c2nccc(C=O)n2)ncc1C#N [Compound 8, 3-(5-cyano-4-((2-methoxyethyl)amino)pyrid-2-yl)-1-(4-formylpyrimidin-2-yl)-1-methylurea]	> 1000	100 to 1000		
COC[C@@H](C)Oc1cc(NC(=O)N(C)c2ccc(CN3CCN(C)CC3=O)c(C=O)n2)ncc1C#N [Compound 18, (R)-3-(5-cyano-4-((1-methoxyprop-2-yl)oxo)pyrid-2-yl)-1-(6-formyl-5-((4-methyl-2-carbonylpiperazin-1-yl)methyl)pyrid-2-yl)-1-methylurea]			< 50	TGI value ([3]; 10 mg/kg BID for 18 days, oral): 96.4%; mean tumor size ([3]; 10 mg/kg BID for 18 days, oral): 230 mm^3; TGI value ([3]; 30 mg/kg BID for 18 days, oral): 108.3%; mean tumor size ([3]; 30 mg/kg BID for 18 days, oral): 16 mm^3; TGI value ([3]; 60 mg/kg QD for 18 days, oral): 104.4%; mean tumor size ([3]; 60 mg/kg QD for 18 days, oral): 86 mm^3; TGI value [3, 4]: 109.2%; mean tumor size [3, 4]: 0 mm^3; tolerability by tumor-bearing animals ([3]; all dose levels): well-tolerated; body weight loss during the treatment ([3]; all groups): didn't exhibit significant body weight loss
COCCOc1cc(NC(=O)N(C)c2ccc(CN3CCOCC3=O)c(C=O)n2)ncc1C#N [Compound 12]			< 50	
CC(C)Nc1cc(NC(=O)N(C)c2cccc(C=O)n2)ncc1C#N [Compound 5, 3-(5-cyano-4-(isopropylamino)pyrid-2-yl)-1-(6-formylpyrid-2-yl)-1-methylurea]	> 1000	< 10		
CNC(=O)c1cc(Oc2ccc(NC(=O)Nc3ccc(Cl)c(C(F)(F)F)c3)cc2)ccn1 [sorafenib, reference compound]				antitumor activity (in words) ([3]; 40 mg/kg QD, oral): some antitumor activity
CC(C)Nc1cc(NC(=O)N(C)c2ccc(CN3CCOCC3=O)c(C=O)n2)ncc1C#N [Compound 10, 3-(5-cyano-4-(isopropylamino)pyrid-2-yl)-1-(6-formyl-5-((3-carbonylmorpholino)methyl)pyrid-2-yl)-1-methylurea]			50 to 100	
